Structures can show the parent of a compound that is named as a salt. Where two headings read alike, the source gives them in different places.
How the values were obtained:
[1] = tested on: murine macrophage-like cell line J774.A1; assay: Inhibition of cholesterol esterification in mammalian cells (macrophage assay); assay type: cell-based
How it was run: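 Murine J774.A1 macrophages at 37 °C received 34 μg acetylated human LDL in 10% FBS-DMEM from 24 h, compound in DMSO at 41 h, then a 0.1 mM 14C-oleic acid–BSA pulse from 43 to 45 h. Labelled cholesteryl ester was separated by TLC, counted and normalised to Lowry protein.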

[2] = tested on: hypercholesterolemic (cholesterol-fed) hamsters; assay: Antihypercholesterolemic activity in cholesterol-fed hamsters; assay type: in vivo, hamster; details: two weeks; for Serum Cholesterol, Treated: mean ± SEM, n = 9-10; for Serum Cholesterol Decrease: vs control
Description: C. Assay of Antihypercholesterolemic Activity in Cholesterol-fed Hamsters
Inhibition of ACAT activity in the gut reduces the absorption of cholesterol in cholesterol-fed animals. Hamsters weighing approximately 100 g, were maintained on a diet supplemented with 0.8% cholesterol. The treatment group received 1-100 mg/kg/day, p.o., of the test compound dissolved in 500 μl of corn oil for a period of two weeks. The control group were pair-fed to the treatment group and were dosed with 500 μl of the corn oil vehicle. At sacrifice, the hamsters were anesthetized with CO2 and exsanguinated via cardiac puncture. Total serum cholesterol was determined on a Du Pont aca® IV. The data were expressed in terms of mg cholesterol per 100 ml of serum (mg %).

[3] = target: T1, Acyl-CoA: Cholesterol Acyltransferase (ACAT) (Rattus norvegicus, UniProt Q7TQM4); assay: Inhibition of acyl-CoA: cholesterol acyltransferase (ACAT) in hepatic microsomes (in vitro); assay type: biochemical, rat (male Sprague Dawley)
T1 construct: Microsomes were obtained by differential centrifugation; from tissue; host or cells: liver microsomes of male Sprague Dawley rats
T1 sequence (Q7TQM4 1-524): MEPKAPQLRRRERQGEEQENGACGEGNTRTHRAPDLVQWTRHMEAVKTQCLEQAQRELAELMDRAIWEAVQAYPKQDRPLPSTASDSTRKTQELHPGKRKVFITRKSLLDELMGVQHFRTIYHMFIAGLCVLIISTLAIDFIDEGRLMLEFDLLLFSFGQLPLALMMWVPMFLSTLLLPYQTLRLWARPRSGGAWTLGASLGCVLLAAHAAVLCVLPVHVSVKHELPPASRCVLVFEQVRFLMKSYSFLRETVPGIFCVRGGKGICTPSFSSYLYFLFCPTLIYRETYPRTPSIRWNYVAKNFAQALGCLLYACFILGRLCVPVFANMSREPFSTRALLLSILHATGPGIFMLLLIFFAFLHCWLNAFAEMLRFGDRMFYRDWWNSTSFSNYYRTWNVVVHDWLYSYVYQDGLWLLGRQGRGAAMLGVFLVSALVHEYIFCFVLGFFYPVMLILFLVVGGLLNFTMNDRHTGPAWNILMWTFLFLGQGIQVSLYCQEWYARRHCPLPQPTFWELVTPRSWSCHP
Description: A. Assay of the Inhibition of Acyl-CoA: Cholesterol Acyltransferase (ACAT) in Hepatic Microsomes
The ability of the compounds to inhibit ACAT, the enzyme responsible for the intracellular synthesis of cholesteryl esters, was tested as follows. Male Sprague Dawley rats weighing 150-300 g, were fed rat chow ad libitum. The animals were fasted for twenty-four hours prior to being sacrificed by decapitation. The livers were perfused in situ with 50 ml of cold 0.25M sucrose, excised, and homogenized in three volumes of 0.1M phosphate buffer, pH 7.4, that contained 0.5 mM EDTA (ethylenediaminetetraacetic acid), 1.0 mM glutathione, 0.25M sucrose and […]. Microsomes were obtained by differential centrifugation; the supernatant from an initial spin at 15,000×g for 15 minutes was centrifuged at 105,000×g for 1 hour to pellet the microsomes. The microsomes were suspended in homogenization buffer, reisolated by centrifugation, and stored at -70° C. Microsomes were used within one month of preparation.
The control assay in a final volume of 200 μl consisted of 200 μg of microsomal protein, 75 μM ^14 C-oleoyl-CoA (10,000 dpm/nmol) in 0.1M phosphate, pH 7.4, that contained 1 mM glutathione. Compounds were added in 5 μl of DMSO (dimethyl sulfoxide) and additional controls were run with DMSO only. All components, except the oleoyl-CoA, were preincubated for 15 min. at 37° C. prior to the initiation of the reaction by the addition of oleoyl-CoA. The assay was terminated after 10 min by the addition of 4 ml of chloroform:methanol (2:1, v/v). 20,000 dpm of ^3 H-cholesteryl oleate and 10 μg of unlabeled cholesteryl oleate and oleic acid were added as an internal standard and carriers, respectively. After allowing 10 min. for lipid extraction, the samples were centrifuged at 1,000×g for 10 min. to separate the solvent layers. The chloroform layer containing the neutral lipids was spotted onto a Baker SI250-Pa silica gel TLC plate and the plate developed using a hexane: diethyl ether: acetic acid (170:30:1 v/v/v) mobile phase. The lipids were visualized by their interaction with iodine vapor and the cholesteryl ester spot was scraped into a scintillation vial and counted.

[4] = J774.A1 macrophages loaded with ac-LDL, 14C-oleic acid, read-out: Cholesterol Esterification IC50
[5] = rat hepatic microsomes, 75 μM 14C-oleoyl-CoA, pH 7.4, 37° C., read-out: In Vitro ACAT IC50
[6] = In Vitro ACAT IC50, rat hepatic microsomes, 75 μM 14C-oleoyl-CoA, pH 7.4, 37° C.

Row | SMILES | IC50 [1, 4] | IC50 [3, 5] | also measured
1 | CCCCCCCN(CCCCCSc1nc(-c2ccccc2)c(-c2ccccc2)[nH]1)C(=O)Nc1ccc(F)cc1F [Example 1, N'-(2,4-difluorophenyl)-N-[5-(4,5-diphenyl-1H-imidazol-2-ylthio)pentyl]-N-heptylurea] | 1000 nM | – | Serum Cholesterol, Treated ([2]; 1 mg/kg/day p.o., control 400 ± 25): 295 ± 12 mg %; Serum Cholesterol Decrease ([2]; 1 mg/kg/day p.o.): 26%; Serum Cholesterol, Treated ([2]; 3 mg/kg/day p.o., control 381 ± 17): 279 ± 16 mg %; Serum Cholesterol Decrease ([2]; 3 mg/kg/day p.o.): 27%; Serum Cholesterol, Treated ([2]; 10 mg/kg/day p.o., control 371 ± 7): 201 ± 12 mg %; Serum Cholesterol Decrease ([2]; 10 mg/kg/day p.o.): 46%; Serum Cholesterol, Treated ([2]; 30 mg/kg/day p.o., control 368 ± 15): 197 ± 11 mg %; Serum Cholesterol Decrease ([2]; 30 mg/kg/day p.o.): 46%; Serum Cholesterol, Treated ([2]; 100 mg/kg/day p.o., control 400 ± 17): 62 ± 8 mg %; Serum Cholesterol Decrease ([2]; 100 mg/kg/day p.o.): 60%
2 | CCCCCCCN(CCCCCSc1nc(-c2ccc(OC)cc2)c(-c2ccc(OC)cc2)[nH]1)C(=O)Cc1ccc(F)cc1F [Example 351, N-[5-[4,5-bis(4-methoxyphenyl)-1H-imidazol-2-ylthio]pentyl]-2,4-difluoro-N-heptylbenzeneacetamide] | 40 nM | 250 nM | –
3 | CCCCCCCN(CCCC)CCCCCSc1nc(-c2ccccc2)c(-c2ccccc2)[nH]1 [Example 352] | 2200 nM | 300 nM | –
4 | CCCCCCCN(CCCCCSc1nc(-c2ccc(OC)cc2)c(-c2ccc(OC)cc2)[nH]1)CCc1ccc(F)cc1F [Example 353, N-[5-[4,5-bis(4-methoxyphenyl)-1H-imidazol-2-ylthio]pentyl]-2,4-difluoro-N-heptylbenzeneethaneamine] | 80 nM | 240 nM | –
5 | CCCCCCCN(CCCCCSc1nc(-c2ccc(N(C)C)cc2)c(-c2ccc(N(C)C)cc2)[nH]1)C(=O)CC1CCCCC1 [Example 354] | 20 nM | 50 nM | –
6 | CCCCCCCN(CCCCCSc1nc(-c2ccc(OC)cc2)c(-c2ccc(OC)cc2)[nH]1)C(=O)CC1CCCCC1 [Example 355, N-[5-[4,5-bis(4-methoxyphenyl)-1H-imidazol-2-ylthio]pentyl]-N-heptylcyclohexaneacetamide] | 30 nM | 10 nM | –
7 | CCCCCCCN(CCCCCSc1nc(-c2ccccc2)c(-c2ccccc2)[nH]1)C(=O)OCC(C)C [Example 403, (2-Methylpropyl) [5-(4,5-diphenyl-1H-imidazol-2-ylthio)pentyl]heptylcarbamate] | 500 nM | 35 nM | –
8 | CCCCCCCN(CCCCCSc1nc(-c2ccccc2)c(-c2ccccc2)[nH]1)C(=O)OCC [Example 404, Ethyl [5-(4,5-diphenyl-1H-imidazol-2-ylthio)pentyl]heptylcarbamate] | 500 nM | 33 nM | –
9 | CCCCCCCCOC(=O)N(CCCCCCC)CCCCCSc1nc(-c2ccccc2)c(-c2ccccc2)[nH]1 [Example 405, Octyl [5-(4,5-diphenyl-1H-imidazol-2-ylthio)pentyl]heptylcarbamate] | 3900 nM | 500 nM | –
10 | CCCCCCCN(CCCCCSc1nc(-c2ccccc2)c(-c2ccccc2)[nH]1)C(=O)Oc1ccc(F)cc1 [Example 406, (4-fluorophenyl)[5-(4,5-diphenyl-1H-imidazol-2-ylthio)pentyl]heptylcarbamate] | 600 nM | – | IC50 [3, 6]: 10 nM
11 | CCCCCCCN(CCCCCSc1nc(-c2ccccc2)c(-c2ccccc2)[nH]1)C(=O)OCCC [Example 407, Propyl [5-(4,5-diphenyl-1H-imidazol-2-ylthio)pentyl]heptylcarbamate] | 800 nM | 40 nM | –
12 | CCCCCCCN(CCCCCSc1nc(-c2ccccc2)c(-c2ccccc2)[nH]1)C(=O)OCc1ccccc1 [Example 408, (Phenylmethyl) [5-(4,5-diphenyl-1H-imidazol-2-ylthio)pentyl]heptylcarbamate] | 1300 nM | 9 nM | –
13 | CCCCCCCN(CCCCCSc1nc(-c2ccc(OC)cc2)c(-c2ccc(OC)cc2)[nH]1)C(=O)Oc1ccccc1 [Example 410] | 30 nM | – | IC50 [3, 6]: 640 nM
14 | CCCCCCCN(CCCCCSc1nc(C(C)C)c(C(C)C)[nH]1)C(=O)Oc1ccccc1 [Example 411, phenyl N-[5-(4,5-bis(1-methylethyl)-1H-imidazol-2-ylthio]pentyl]-N-heptylcarbamat] | 500 nM | – | IC50 [3, 6]: 310 nM
15 | CCCCCCCN(CCCCCSc1nc(-c2ccc(OC)cc2)c(-c2ccc(OC)cc2)[nH]1)C(=O)OCC(C)C [Example 457] | 100 nM | 834 nM | –
16 | CCCCCCCNCCCCCSc1nc(-c2ccccc2)c(-c2ccccc2)[nH]1 [N-[5(4,5-diphenyl-1H-imidazol-2-ylthio)pentyl]-1-heptanaminehydrochloride] | – | – | IC50 ([3]; intermediate, read-out: IC50 in the in vitro ACAT assay): 100 nM; IC50 ([1]; intermediate, read-out: IC50 in the macrophage assay): 6000 nM

From US5166214A, “Use of imidazoles for the treatment of atherosclerosis” (priority 1990, dated 1992)
